Test results as given in BindingDB's records for doi:10.1021/jm200004e (University of Louisiana At Monroe, 2011).
*1 amine or outer side, *2 acyl side, *3 side chain or, on linkers, in order; H or OH if unused. Where a SMILES comes first, the peptide text is derived from it. [ ]: non-standard residue; d: D form. X1 = O=C(CCc1cccc2c1oc1c(CCN[*:1])cccc12)[*:2]

Experiment: Inhibition of CD2 assessed as inhibition of CD2-CD58 protein-protein interaction mediated cell adhesion between CD58 expressing sheep red blood cells and CD2 expressing human Jurkat cells by E-rosettes assay

CC[C@H](C)[C@@H]1NC(=O)[C@H](Cc2ccc(O)cc2)NC(=O)[C@H](CC(=O)O)NC(=O)CCc2cccc3c2Oc2c(cccc2-3)CCNC(=O)[C@H](CC(=O)O)NC(=O)[C@H](CC(=O)O)NC(=O)[C@H](CCCCN)NC1=O (cyclo(DD[X1]DYIK))
IC50: 25.7 nM
